# Source: paper PMC5871776, “Opn5L1 is a retinal receptor that behaves as a reverse and self-regenerating photoreceptor” (Nature Communications, 2018)
# Where a chain is given by its changes, count along the chain named.
# Experiments:
# Opn5L1NC [1] = molecular target: T1, Opn5L1NC (Gallus gallus, UniProt B3XZF4, E159K/Q174K, form not given); test: LC-MS of tryptic peptide with retinal oxime at Cys188; format: binding; conditions: covalent (light-induced thio-adduct at Cys188); hydroxylamine, irradiation >500 nm
# T1 construct: gene cOpn5L1; HEK293T, purified in dodecyl maltoside
# T1 sequence (B3XZF4 20-310 E159K/Q174K limits assumed): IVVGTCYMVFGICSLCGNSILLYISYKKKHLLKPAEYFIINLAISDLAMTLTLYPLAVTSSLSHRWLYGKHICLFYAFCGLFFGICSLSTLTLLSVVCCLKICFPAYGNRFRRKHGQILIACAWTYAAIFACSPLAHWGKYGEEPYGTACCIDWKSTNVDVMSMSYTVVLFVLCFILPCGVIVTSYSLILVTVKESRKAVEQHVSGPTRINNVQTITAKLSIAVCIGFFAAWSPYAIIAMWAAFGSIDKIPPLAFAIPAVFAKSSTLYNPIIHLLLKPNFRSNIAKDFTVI
# Opn5L1NC [2] = molecular target: T2, Opn5L1NC (Gallus gallus, UniProt B3XZF4, C170T, form not given); test: absorption spectrum of purified pigment and HPLC of extracted retinal; format: binding; conditions: covalent (retinylidene Schiff base); retinal 5 μM added to the cell culture; pH 7.0, 10 °C
# T2 construct: gene cOpn5L1; HEK293T, purified in dodecyl maltoside
# T2 sequence (B3XZF4 20-310 C170T limits assumed): T1 sequence (B3XZF4 20-310 E159K/Q174K limits assumed) with K140E, C151T, K155Q
# [3] = molecular target: T3, Opn5L1 bearing native N- and C- termini (Gallus gallus, UniProt B3XZF4, C170T); test: as above; format: binding; conditions: covalent (retinylidene Schiff base)
# T3 construct: gene cOpn5L1; HEK293T, purified
# T3 sequence (B3XZF4 1-441 C170T): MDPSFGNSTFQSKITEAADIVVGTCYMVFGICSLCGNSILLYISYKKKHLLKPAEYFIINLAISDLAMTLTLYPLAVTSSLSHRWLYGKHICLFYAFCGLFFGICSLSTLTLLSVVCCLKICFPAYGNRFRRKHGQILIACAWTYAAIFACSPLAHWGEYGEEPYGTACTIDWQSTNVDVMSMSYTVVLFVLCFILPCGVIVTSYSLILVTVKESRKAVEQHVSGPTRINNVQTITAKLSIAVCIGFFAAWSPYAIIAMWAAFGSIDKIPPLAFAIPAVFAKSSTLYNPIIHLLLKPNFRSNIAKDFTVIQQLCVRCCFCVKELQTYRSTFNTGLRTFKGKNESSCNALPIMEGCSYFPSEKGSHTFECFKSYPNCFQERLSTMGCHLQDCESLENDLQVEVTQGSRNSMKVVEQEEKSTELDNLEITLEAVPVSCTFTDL
# [4] = molecular target: T4, Opn5L1 bearing native N- and C- termini (Gallus gallus, UniProt B3XZF4); test: as above; format: binding; conditions: covalent (retinylidene Schiff base)
# T4 construct: gene cOpn5L1; HEK293T, purified
# T4 sequence (B3XZF4 1-441): T3 sequence (B3XZF4 1-441 C170T) with T170C
# Opn5L1NC [5] = molecular target: T5, Opn5L1NC (Gallus gallus, UniProt B3XZF4); test: as above; format: binding; conditions: covalent (retinylidene Schiff base); 10 μM retinal, 4 °C, 8 h, dark; pH 7.0
# T5 construct: gene cOpn5L1; HEK293T, purified in dodecyl maltoside
# T5 sequence (B3XZF4 20-310 limits assumed): T1 sequence (B3XZF4 20-310 E159K/Q174K limits assumed) with K140E, K155Q
# Opn5L1N = molecular target: T6, Opn5L1N (Gallus gallus, UniProt B3XZF4); test: […]GTPgammaS filter binding assay of Gi activation; format: biochemical; conditions: agonist; membrane fraction, 0.6 μM Gi, dark, pH 7.0, 25 °C; covalent (retinylidene Schiff base)
# T6 construct: gene cOpn5L1; HEK293T membranes
# T6 sequence (B3XZF4 20-441 limits assumed): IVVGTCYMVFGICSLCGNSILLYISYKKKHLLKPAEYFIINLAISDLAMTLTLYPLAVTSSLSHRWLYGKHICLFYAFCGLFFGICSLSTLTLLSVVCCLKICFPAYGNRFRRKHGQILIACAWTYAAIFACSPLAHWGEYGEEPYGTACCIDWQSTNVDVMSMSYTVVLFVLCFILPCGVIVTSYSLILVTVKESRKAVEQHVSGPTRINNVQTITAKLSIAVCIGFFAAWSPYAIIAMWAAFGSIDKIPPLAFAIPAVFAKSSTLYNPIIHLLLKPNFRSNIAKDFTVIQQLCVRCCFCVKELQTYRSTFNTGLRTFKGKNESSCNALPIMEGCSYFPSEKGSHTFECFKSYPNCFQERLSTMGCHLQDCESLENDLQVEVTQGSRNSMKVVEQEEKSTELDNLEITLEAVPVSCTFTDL
compound,measurement,setting,value
CC1=C(/C=C/C(C)=C/C=C/C(C)=C/C=O)C(C)(C)CCC1 [all-trans-retinal],LC-MS of tryptic peptide with retinal oxime at Cys188,Opn5L1NC [1],Light increased the amount of peptide with retinal oxime at the second cysteine
same,absorption spectrum of purified pigment and HPLC of extracted retinal,Opn5L1NC [2],the C188T mutant of Opn5L1NC showed an absorption maximum similar to that of WT
same,absorption spectrum of purified pigment and HPLC of extracted retinal,[3],verified the function of Cys188 in the mutant Opn5L1 bearing native N- and C- termini
same,absorption spectrum of purified pigment and HPLC of extracted retinal,[4],Opn5L1 bearing native N- and C- termini showed molecular characteristics indistinguishable
same,absorption spectrum of purified pigment and HPLC of extracted retinal,Opn5L1NC [5],we concluded that Opn5L1NC directly incorporates all-trans-retinal and not 11-cis-retinal
same,EC50,Opn5L1N,0.62 µM
